The values that follow come from patent publication US12458605B2, “Lipid nanoparticle” (National University Corporation Hokkaido University, priority 2020, dated 2025).

Data set [1] is described as follows: Average particle size (ζ-Average) and PDI by dynamic light scattering (Zetasizer Nano ZSP). The data set is classed as physicochemical. The essentials:
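Dynamic light scattering of the particles in PBS(−) gave both the polydispersity index and the ζ-Average mean size.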

Data set [2] is described as follows: siRNA/mRNA encapsulation rate by Ribogreen reagent (section IV). The format is physicochemical. The procedure, abridged:
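Encapsulation % was calculated as (total − surface nucleic acid)/total × 100, with both values measured by RiboGreen fluorescence at 485/528 nm. Total RNA was read on LNPs lysed with 1% Triton X-100 at 1.2 μg/mL, and surface RNA on intact LNPs at 8 μg/mL in TE buffer. Concentrations came from a 0-2.5 μg/mL Triton-containing calibration curve.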

The subject of the next data set is liver. The data set is described as follows: In vivo Fluc activity of FlucmRNA-loaded LNP by in vivo imaging, liver. As to conditions: Balb/c mice, FlucmRNA-loaded LNP i.v. 0.1 mg mRNA/kg, 6 hours. The procedure, abridged: (§1)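 Read-out is average radiance (p/s/cm2/sr, about 560 nm) from whole-animal imaging of liver and spleen 6 h post-dose, after tail-vein luciferin at 1.5 mg/mouse. Dosing was intravenous, 0.1 mg mRNA/kg, in 7-week-old female Balb/c mice.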

Another data set concerns spleen. The data set is described as follows: In vivo Fluc activity of FlucmRNA-loaded LNP by in vivo imaging, spleen. As to conditions: Balb/c mice, 6 hours. The procedure, abridged: as §1
For the next data set, the system named is F7. Briefly: In vivo F7 knockdown, plasma F7 enzyme activity (BIOPHEN FVII), Balb/c mice. As to conditions: i.v. 0.025 mg siRNA/kg, plasma at 24 hours, untreated mice as 100%. The procedure, abridged: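 Plasma factor VII activity was read 24 h after a single intravenous 0.025 mg siRNA/kg dose of siRNA-loaded lipid nanoparticles in 5-week-old female Balb/c mice. Activity is relative to untreated animals (100%) and normalised to the MC3 nanoparticle benchmark (=1).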

Data set [3] in a line: pDNA encapsulation rate by Picogreen reagent. The format is physicochemical. The following applies: pDNA (eGFP)-loaded LNP. The protocol:
The encapsulation rate of pDNA of the lipid nanoparticles was measured using Picogreen (registered trademark) reagent (Quant-iT™ dsDNA Assay Kit, broad range, manufactured by Thermofisher Scientific). In encapsulation rate measurement of pDNA, the nucleic acid concentration in solution for measuring nanoparticle surface nucleic acid concentration was set at 1.6 μg/mL, the nucleic acid concentration in solution for measuring total nucleic acid concentration […], and the nucleic acid concentration used for calibration curve 0-0.5 μg/mL, and the same method as the method for measuring encapsulation rate of siRNA and mRNA was carried out except that Picogreen (registered trademark) reagent (Quant-iT™ dsDNA Assay Kit, broad range, manufactured by Thermofisher Scientific) was used as measurement reagent. Encapsulation rate %=(nucleic acid concentration in solution for measuring total nucleic acid concentration (μg/mL)−nucleic acid concentration in solution for measuring nanoparticle surface nucleic acid concentration (μg/mL))/(nucleic acid concentration in solution for measuring total nucleic acid concentration (μg/mL))×100. <Results>

Data set [4] can be described thus: Stability of pDNA-loaded LNP standing at 40° C. The format is physicochemical. As to the method:
Prepared lipid nanoparticles were allowed to stand at 40° C., and after keeping for each period, they were evaluated whether quality was well remained according to the following criteria: • Good (O): particle size is within +/−20 nm of the particle size immediately after preparation, and PDI is 0.2 or less, and encapsulation rate is 80% or more; • No good (X): particle size is greater than +/−20 nm of the particle size immediately after preparation, or encapsulation rate is less than 80%.
The lipid nanoparticles which remain in good quality with standing at 40° C. for one week or more can be evaluated as having excellent stability.

Data set [5] can be described thus: Storage stability of FlucmRNA-loaded LNP at −80, 5, 25 and 40° C. The data set is classed as physicochemical. The essentials: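 Reported period is how long all three criteria hold: encapsulation rate at 80% or more, PDI of 0.2 or less, and mean particle size within +/−20 nm of day-of-preparation value. Particle size, PDI and nucleic acid encapsulation were tracked over time at storage temperatures of −80, 5, 25 and 40° C.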

The mark [6] stands for this setting: F7siRNA-loaded LNP, 50:10:38.5:1.5, N/P ratio 6.
Where [7] appears, read: FlucmRNA-loaded LNP, 50:10:38.5:1.5.
Where [8] appears, read: pDNA-loaded LNP after standing at 40° C. 1 M.
The mark [9] stands for this setting: pDNA-loaded LNP after standing at 40° C. 1 W.

On to `CCCCCCCCC(CCCCC)C(=O)OCCCCCCC(O)(CCCCCCOC(=O)C(CCCCC)CCCCCCCC)CCCCN(CCC)CCC` (stereo not shown) [CL4F 10-5], for which, in data set [1] (setting [6]), the PDI was found to be 0.006 and the “ζ-Average (nm)” value was 98.70 nm. The compound further displayed a PDI in data set [1] (setting [7]) of 0.021. In addition, the “ζ-Average (nm)” value in data set [1] (FlucmRNA-loaded LNP, lipid:DSPC:cholesterol:DMG-PEG2K 50:10:38.5:1.5) was found to be 84.62 nm. In addition, the “Particle size (nm), immediately after the preparation” value in data set [1] (pDNA (eGFP)-loaded LNP, 50:10:38.5:1.5) came to 101.6 nm. For the same compound, the “% siRNA encapsulation” value in data set [2] (setting [6]) was determined as 100.1%. In data set [2] (setting [7]), the “% mRNA encapsulation” value came out at 99.7%. The “Fluc Activity in liver” value in the data set on liver was 1.06E+08 Avg Radiance [p/s/cm2/sr]. The “Fluc activity in the spleen, compared with CL4F6” value in the data set on spleen (0.1 mg mRNA/kg, versus LNP comprising CL4F6 (Tables 5 and 6)) was “higher Fluc activity”. Moreover, the “Fluc Activity in spleen” value in the data set with spleen (FlucmRNA-loaded LNP i.v. 0.1 mg mRNA/kg) amounted to 4.64E+06 Avg Radiance [p/s/cm2/sr]. In the data set on F7, the “F7 enzyme activity (%)” value is recorded as 3%. The “encapsulation rate (%), immediately after the preparation” value in data set [3] is 98.2%. In data set [4] (pDNA-loaded LNP), the “Quality 40° C. 1 M” value was “∘” and the “Quality 40° C. 1 W” value is recorded as “∘”. Also, in data set [4] (setting [8]), the “Particle size (nm), 40° C. 1 M” value was found to be 104.2 nm and the “encapsulation rate (%), 40° C. 1 M” value amounted to 98.5%. Also, in data set [4] (setting [9]), the “Particle size (nm), 40° C. 1 W” value was 101.0 nm and the “encapsulation rate (%), 40° C. 1 W” value was 98.3%. Besides, the “period for which quality remained good, −80° C.” value in data set [5] (maximum storage period 1 week) was 1 week. For the same compound, in data set [5] (maximum storage period 5 weeks), the “period for which quality remained good, 5° C.” value stood at 5 weeks; the “period for which quality remained good, 25° C.” value turned out to be 5 weeks; the “period for which quality remained good, 40° C. (weeks)” value was found to be 5 weeks.
